Laboratory results from US20140309295A1, “ANTIEPILEPTIC, HYPOCHOLESTEROLEMIC AND NEUROPROTECTIVE COMPOUND” (NEURON BIOPHARMA, S.A., priority 2009, published 2014).

Experiments:
[1] = tested on: human neuroblastoma SK-N-MC cells; assay: Protection against neuronal death induced by oxidative stress (xanthine/xanthine oxidase), WST-1; assay type: cell-based
Experimental: (§1) The assay was performed on human neuroblastoma SK-N-MC cells in culture from the American Type Culture Collection (ATCC), in all cases strict rules of sterility were followed and the manipulation was performed in class II biological safety cabinets following European standard EN 12469. The cells were maintained in the following culture medium: Minimum Essential Medium Eagle (MEM) supplemented with 1 mM sodium pyruvate, 2 mM L-glutamine, 0.1 mM non-essential amino acids, 0.05 mg/ml gentamicin and 10% fetal bovine serum.
The inhibition caused by compound NST0037 of cell death caused by treatment with xanthine/xanthine oxidase which generates oxidative damage (causes free radicals such as hydrogen peroxide, superoxide anion, hydroxyl radical), which triggers cell death, was analyzed. These cells, not exceeding 15 passages, were seeded on 96-well plates treated for adherent cells with a cell concentration of 5×10^4 cells/well; 3 wells of the plate were seeded for each condition of the assay.
After 24 hours of cell incubation at 37° C. and 5% CO2, the cell treatments were performed with 100 μl of total volume for the following conditions: • Control: culture medium (medium) • Xanthine/xanthine oxidase (XXO): medium plus 10 μM xanthine/60 mU/mL xanthine oxidase, causing the death of 50% of the cells. • XXO plus NST0037: medium plus XXO (10 μM/60 mU/mL) plus NST0037 at 1, 4, 10, 20, 40 or 100 μM.
The cells were incubated (at 37° C. and 5% CO2) with these treatments for 22 hours, after which time the WST-1 reagent (Roche) was added. The Test WST-1 is based on the measurement of metabolic activity. Cell damage causes the loss of the ability of cells to obtain the energy necessary to maintain their metabolic functions and cell growth, therefore the metabolically active (live) cells reduce tetrazolium salt to formazan by means of the succinate-tetrazolium reductase system (of the mitochondrial respiratory chain). The formazan which is formed can be detected colorimetrically since it has an absorbance of 440 nm. The reading was taken in a plate reader at 440 nm 2 hours after adding the reagent.
The assay was performed on human neuroblastoma SK-N-MC cells in culture from the American Type Culture Collection (ATCC), in all cases strict rules of sterility were followed and the manipulation was performed in class II biological safety cabinets following European standard EN 12469. […]
The effect of mevalonate on the protection caused by compound NST0037 against cell death caused by the treatment with xanthine/xanthine oxidase generating oxidative damage and cell death was analyzed. […]

[2] = tested on: human neuroblastoma SK-N-MC cells; assay: Inhibition of camptothecin-induced apoptosis by flow cytometry (sub-G1); assay type: cell-based; details: pretreatment 40 μM NST0037 with 100 μM mevalonate
Experimental: as §1
The inhibition caused by compound NST0037 against apoptosis (programmed cell death) caused by treatment with camptothecin which inhibits the enzyme Topoisomerase I, which prevents DNA duplication and triggers apoptotic cell death, was analyzed. These cells, not exceeding 15 passages, were seeded on 6-well plates treated for adherent cells with a cell concentration of 8×10^5 cells/well and 7×10^5 cells/well for the assay with pretreatment; 2 wells of the plate were seeded for each condition of the assay.
After 24 hours of cell incubation at 37° C. and 5% CO2, the cell treatments were performed with 2 ml of total volume for the following conditions: • Control: culture medium (medium) • Camptothecin: medium plus camptothecin 50 μM. • Camptothecin plus Z-VAD-fmk: medium plus 50 μM camptothecin plus 50 μM Z-VAD-fmk, as positive inhibition control. • Camptothecin plus NST0037: medium plus 50 μM camptothecin plus NST0037 at 10, 40 or 100 μM.
In the assay with pretreatment, the cells were previously treated with 40 μM of NST0037, 100 μM of mevalonate or both together for 24 hours and then they were treated with 50 μM camptothecin, the rest of the procedure was similar to the assay without pretreatment.
The cells were incubated (at 37° C. and 5% CO2) with these treatments for 6 hours, after which time they were collected along with their culture medium and centrifuged at 300×g for 5 minutes. The medium was removed, a washing was performed with PBS and the cells were fixed for 2 minutes with 500 μl of 70% ethanol at −20° C. Once fixed, they were centrifuged at 400×g for 5 minutes, washed with PBS and 0.05 mg/ml propidium iodide, diluted in cycling buffer (0.1% sodium citrate, 0.3% Nonidet P-40 and 0.02 mg/ml RNase) were added and they were incubated for 1 hour at 37° C. After this time they were analyzed by flow cytometry, comparing the fluorescence of propidium iodide against the amount of DNA. The percentage of apoptosis was measured on the sub-G1 region of each of the conditions.

caspase 3/7 = assay: Inhibition of camptothecin-induced activation of caspase 3/7 in SK-N-MC cells; assay type: cell-based, human; details: 100 μM mevalonate with NST0037 pretreatment
Experimental: The assay was performed on human neuroblastoma SK-N-MC cells in culture from the American Type Culture Collection (ATCC), in all cases strict rules of sterility were followed and the manipulation was performed in class II biological safety cabinets following European standard EN 12469. The cells were maintained in the following culture medium: Minimum Essential Medium Eagle (MEM) supplemented with 1 mM sodium pyruvate, 2 mM L-glutamine, 0.1 mM non-essential amino acids, 0.05 mg/ml gentamicin and 10% fetal bovine serum. The induction of apoptosis on the cells in culture was performed by means of incubation with camptothecin (CPT), which triggers cell apoptosis activation. The apoptosis was determined by means of the measurement of the activation of effector caspases, caspase 3 or caspase 7, for which a kit for the fluorometric detection of active caspase 3/7 (Apo-ONE® Homogeneous Caspase-3/7, Promega) was used. The active caspase 3 or 7 of the cells cause the rupture of a substrate, which leads to fluorescence emission, which is read by means of a fluorometer. The effect of the pretreatment of compound NST0037 at 10 and 40 μM on the activation of caspase 3/7 caused by 50 μM of camptothecin (CPT) in the SK-N-MC cells was thus analyzed. These cells, not exceeding 15 passages, were seeded on 96-well plates treated for adherent cells with a cell concentration of 5×10^4 cells/well, 3 wells of the plate were seeded for each condition of the assay. After 24 hours of cell incubation at 37° C. and 5% CO2, the pretreatment with NST0037 at 10 and 40 μM was performed. […] On the following day, fluorescence was measured (499/521 nm, […]).

## CC(O)(CCO)CC(=O)O (stereo not shown) [mevalonate, reference compound]
[1]; 40 μM NST0037 plus mevalonate at 10, 40 and 100 μM
  effect of mevalonate on protection by NST0037 against death by XXO: inhibited
[1]; mevalonate at 10, 40 or 100 μM
  protection by mevalonate alone against death by XXO: does not protect against death by XXO
[2]
  effect of mevalonate on the protection exerted by NST0037 against apoptosis: partially inhibited
Caspase 3/7
  effect of mevalonate on inhibition of caspase 3/7 by NST0037: reverted this inhibition
